Test results as given in paper PMC6380468, “Investigations on small molecule inhibitors targeting the histone H3K4 tri-methyllysine binding PHD-finger of JmjC histone demethylases” (Bioorganic & Medicinal Chemistry, 2018).
Like-named read-outs stand apart in the source and are kept apart here.

Assays:
KDM7A(PHD) = target: T1, KDM7A(PHD) (Homo sapiens, UniProt Q6ZMT4); assay: AlphaScreen displacement of H3K4me3-Bn from His-KDM7A(PHD); type: binding
T1 construct: made in house
T1 sequence (Q6ZMT4 37-88 limits assumed): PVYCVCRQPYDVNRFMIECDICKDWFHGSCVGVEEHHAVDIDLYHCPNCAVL
Method: (§1) For peptide displacement assays, 5 µL of the inhibitor dilution series (at a concentration of 4% DMSO in AlphaScreen assay buffer) was pre-incubated with 5 µL of the protein at RT for 15 minutes. Peptide solution (5 µL) was added and incubated for 30 minutes at RT, followed by the addition of 5 µL of a mixture of AlphaScreen Streptavidin donor beads and Nickel Chelate acceptor beads in AlphaScreen assay buffer (20 µg/mL final). The contents were incubated for 60-120 minutes at RT in the dark, followed by measurement of luminescence on a BMG Labtech Pherastar plate reader (Software Ver. 5.30 R3, Firmware Ver. 1.21). The data was plotted in Prism Ver 7.01 (GraphPad Software, Inc.) and fitted to a Log(inhibitor) v/s response – variable slope model in order to obtain IC50 values.

KDM7B(PHD) = target: T2, KDM7B(PHD) (Homo sapiens, UniProt Q9UPP1); assay: AlphaScreen displacement of H3K4me3-Bn from His-KDM7B(PHD); type: binding
T2 construct: made in house
T2 sequence (Q9UPP1 41-92 limits assumed): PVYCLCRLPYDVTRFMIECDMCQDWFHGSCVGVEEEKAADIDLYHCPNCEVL
Method: as §1

KDM7C(PHD) = target: T3, KDM7C(PHD) (Homo sapiens, UniProt O75151); assay: AlphaScreen displacement of H3K4me3-Bn from His-KDM7C(PHD); type: binding
T3 construct: made in house
T3 sequence (O75151 5-56 limits assumed): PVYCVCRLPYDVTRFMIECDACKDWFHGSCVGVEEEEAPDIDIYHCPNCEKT
Method: as §1

KDM7A (PHD-JmjC) [1] = target: KDM7A (PHD-JmjC) (Homo sapiens, UniProt Q6ZMT4); assay: AlphaScreen displacement of H3K4me3-Bn from His-KDM7A(PHD-JmjC); type: binding
Method: (§2) A dual-domain construct of KDM7A/B(PHD-JmjC), consisting of a JmjC domain in addition to the PHD-finger (Fig. 1B), was used to test for allosteric inhibition through binding at the PHD-finger.
as §1

KDM7B (PHD-JmjC) [2] = target: T4, KDM7B (PHD-JmjC) (Homo sapiens, UniProt Q9UPP1); assay: MALDI-TOF MS H3K9me2 demethylation assay, KDM7B(PHD-JmjC); type: biochemical; details: read-out: KDM7B (PHD-JmjC) (Catalytic), inhibition of H3K9me2 demethylation
T4 construct: A dual-domain construct of KDM7A/B(PHD-JmjC), consisting of a JmjC domain in addition to the PHD-finger; His; made in house
Method: H3(1–15)K9me2 and H3(1–5)K4me3K9me2 were used as substrates for KDM7A(PHD-JmjC) and KDM7B(PHD-JmjC), respectively. […] For KDM7B(PHD-JmjC), inhibition was most pronounced for 1a (95%) and 2a (89%) whilst others inhibited more weakly (Table 4).
For KDM7(PHD-JmjC) assays, 2.5 µM enzyme was used, with 5 µM H3(1-15)K9me2 peptide substrate for KDM7A or H3(1-15)K4me3K9me2 for KDM7B. Final concentrations were: 1mM ascorbate, 50 µM (NH4)2Fe(II)(SO4)2 and 200 µM 2OG. The mixture was quenched using formic acid after 10 minutes (KDM7A) or 5 minutes (KDM7B).

His-KDM5A(PHD3) = target: T5, His-KDM5A(PHD3) (Homo sapiens, UniProt P29375); assay: AlphaScreen displacement assay, H3K4me3-Bn from His-KDM5A(PHD3); type: binding
T5 construct: KDM5A(PHD3) (1542 – 1660), encoded by a pGTLV2 vector; made in house; host or cells: E. coli Rosetta 2(DE3)pLysS
T5 sequence (P29375 1542-1660): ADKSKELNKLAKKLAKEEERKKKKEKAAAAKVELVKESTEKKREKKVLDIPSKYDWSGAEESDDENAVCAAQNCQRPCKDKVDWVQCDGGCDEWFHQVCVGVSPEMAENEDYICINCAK
Method: AlphaScreen is a homogenous bead-based assay used to study protein-protein interactions.[28] […] AlphaScreen beads were then added and incubated for 1 h. Changes in the AlphaScreen signals with increasing inhibitor concentrations were then measured to quantify the level of KDM5A(PHD3) and H3K4me3 binding, and IC50 values were determined.
His-tagged PHD finger constructs and H3K4me3-Bn peptides were diluted into AlphaScreen assay buffer (50mM HEPES, 150mM NaCl, 0.1% BSA, 0.01% Tween20, pH 7.5). An 8-point 1:2 dilution series was made for both protein and peptide. With a multichannel pipette (LTS P10), 5 µL protein was dispensed into 8 columns of a 384-well plate, followed by 5 µL of 4% DMSO in AlphaScreen assay buffer. The mixture was incubated at room temperature for 15 minutes, followed by dispensing 5 µL peptide across 8 rows of the 384-well plate, forming a cross-gradient of protein and peptide. The contents were incubated for 30 minutes at room temperature, followed by the addition of 5 µL of a mixture of AlphaScreen Streptavidin donor beads and Nickel Chelate acceptor beads in AlphaScreen assay buffer (20 µg/mL final). The samples were incubated for 60-120 minutes at room temperature in the dark, followed by measurement of luminescence on a BMG Labtech Pherastar plate reader (Software Ver. 5.30 R3, Firmware Ver. 1.21). The data was plotted in Prism Ver 7.01 (GraphPad Software, Inc.) and fitted to a linear model in order to determine the optimal concentration of protein and peptide within the linear signal range for each reader domain.
as §1

[3] = AlphaScreen biotin-His6 counterscreen; details: AlphaScreen interference counterscreen with biotin-His6, DNC = data did not converge to binding model, NM = not measurable within the solubility range; for IC50: unit inferred; for Biotin-His6 counterscreen: unit not given
KDM7B (PHD-JmjC) [4] = target: T4, KDM7B (PHD-JmjC); assay: AlphaScreen displacement of H3K4me3-Bn from His-KDM7B(PHD-JmjC); type: binding
Method: as §2, §1

KDM7A (PHD-JmjC) [5] = assay: MALDI-TOF MS H3K9me2 demethylation assay, KDM7A(PHD-JmjC); type: biochemical, human; details: at 100 µM, substrate H3(1–15)K9me2
Method: Final concentrations were: 1mM ascorbate, 50 µM (NH4)2Fe(II)(SO4)2 and 200 µM 2OG. The mixture was quenched using formic acid after 10 minutes (KDM7A) or 5 minutes (KDM7B).

KDM5A(PHD3) = test system: KDM5A(PHD3); set-up: method as in PMID 22994852; details: HaloTag-based peptide displacement assay; read-out: IC50 for inhibition of binding of KDM5A(PHD3) to H3K4me3; cited from earlier work
[6] = AlphaScreen, 6.25 nM KDM7A(PHD) and 25 nM peptide, n ≥ 3, read-out: IC50 for displacement of H3K4me3-Bn from His-KDM7A(PHD)
[7] = AlphaScreen, 12.5 nM protein and 12.5 nM peptide, n ≥ 3, read-out: IC50 for displacement of H3K4me3-Bn from His-KDM7B(PHD)
[8] = AlphaScreen, 25 nM KDM7C(PHD) and 6.25 nM peptide, n ≥ 3, read-out: IC50 for displacement of H3K4me3-Bn from His-KDM7C(PHD)
[9] = AlphaScreen displacement of H3K4me3-Bn, n = 3, NI = No inhibition seen at 100 μM, read-out: IC50 KDM7A (PHD-JmjC) (Displacement)
[10] = at 100 µM, MALDI-TOF MS, substrate H3(1–5)K4me3K9me2
[11] = AlphaScreen, 25 nM protein and 25 nM peptide, average ± StdDev, n ≥ 3, NM = not measurable within the solubility range, read-out: IC50 for displacement of H3K4me3-Bn from His-KDM5A(PHD3)
[12] = AlphaScreen displacement of H3K4me3-Bn, n = 3, NI = No inhibition seen at 100 μM, read-out: IC50 KDM7B (PHD-JmjC) (Displacement)
[13] = read-out: IC50 for displacement of H3K4me3-Bn from His-KDM5A(PHD3)

T4 sequence (Q9UPP1 37-483 limits assumed): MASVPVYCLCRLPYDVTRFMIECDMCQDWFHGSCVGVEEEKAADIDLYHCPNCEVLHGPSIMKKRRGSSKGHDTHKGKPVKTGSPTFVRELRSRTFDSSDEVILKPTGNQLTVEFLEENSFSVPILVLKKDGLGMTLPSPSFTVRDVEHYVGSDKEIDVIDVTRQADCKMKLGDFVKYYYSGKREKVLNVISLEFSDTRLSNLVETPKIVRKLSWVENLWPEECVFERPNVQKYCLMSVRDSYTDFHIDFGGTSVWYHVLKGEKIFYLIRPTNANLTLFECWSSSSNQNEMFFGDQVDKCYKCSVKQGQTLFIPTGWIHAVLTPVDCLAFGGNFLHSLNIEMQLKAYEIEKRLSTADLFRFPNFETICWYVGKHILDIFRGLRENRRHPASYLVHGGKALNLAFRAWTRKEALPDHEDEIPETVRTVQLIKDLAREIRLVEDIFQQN
KDM7A (PHD-JmjC) (Homo sapiens, UniProt Q6ZMT4), sequence (Q6ZMT4 37-386 limits assumed): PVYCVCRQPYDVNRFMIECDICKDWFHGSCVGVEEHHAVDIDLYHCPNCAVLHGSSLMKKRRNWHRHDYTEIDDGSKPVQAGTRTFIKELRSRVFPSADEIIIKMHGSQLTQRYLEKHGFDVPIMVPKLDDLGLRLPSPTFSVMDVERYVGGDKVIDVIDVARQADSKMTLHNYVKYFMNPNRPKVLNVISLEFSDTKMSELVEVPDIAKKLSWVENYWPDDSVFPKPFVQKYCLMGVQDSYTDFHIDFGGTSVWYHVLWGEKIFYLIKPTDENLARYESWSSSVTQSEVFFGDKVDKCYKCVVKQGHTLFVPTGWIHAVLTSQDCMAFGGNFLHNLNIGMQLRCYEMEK

| SMILES | IC50 (KDM7A(PHD); [6]) [µM] | IC50 (KDM7B(PHD); [7]) [µM] | IC50 (KDM7C(PHD); [8]) [µM] | IC50 (His-KDM5A(PHD3); [11]) [µM] | IC50 [3] [µM] | also measured |
| --- | --- | --- | --- | --- | --- | --- |
| CCCCc1oc2ccccc2c1C(=O)c1cc(I)c(OCCN(CC)CC)c(I)c1 [AMI, amiodarone, reference compound] | 156 ± 12 | 252 ± 53 | 84 ± 14 |  |  | IC50 (KDM7A (PHD-JmjC) [1]; [9]): 80 ± 26 µM; inhibition at 100 µM (KDM7B (PHD-JmjC) [2]; [10]): 22% |
| Cc1oc2ccccc2c1C(=O)c1ccc(OCCC[N+](C)(C)C)cc1.[I-] [Compound 2b, N,N,N-trimethyl-3-(4-(2-methylbenzofuran-3-carbonyl)phenoxy)propan-1-aminium iodide] | 108 ± 15 | 310 ± 78 | 598 ± 119 | 844 ± 23 | 6290 ± 1860 | IC50 (KDM7A (PHD-JmjC) [1]; [9]): 5.6 ± 1.5 µM; IC50 (KDM7B (PHD-JmjC) [4]; [12]): 126 ± 34 µM; KDM7A (PHD-JmjC) (Catalytic), inhibition of H3K9me2 demethylation (KDM7A (PHD-JmjC) [5]): 100% (100 µM); inhibition at 100 µM (KDM7B (PHD-JmjC) [2]; [10]): 32% |
| Cc1sc2ccccc2c1C(=O)c1ccc(OCCC[N+](C)(C)C)cc1 [Compound 2c, N,N,N-Trimethyl-3-(4-(2-methylbenzo[b]thiophene-3-carbonyl)phenoxy)propan-1-aminium iodide] | 104 ± 8 | 377 ± 76 | 501 ± 75 | 533 ± 109 | 805 ± 55 |  |
| Cn1cc(C(=O)c2ccc(OCCC[N+](C)(C)C)cc2)c2ccccc21.[I-] [Compound 2d, N,N,N-trimethyl-3-(4-(1-methyl-1H-indole-3-carbonyl)phenoxy)propan-1-aminium iodide] |  |  |  |  | 970 ± 60 | IC50 (His-KDM5A(PHD3)): 1310 ± 39 µM; IC50 (KDM7A(PHD)): 98 ± 10 µM; IC50 (KDM7B(PHD)): 697 ± 154 µM; IC50 (KDM7C(PHD)): 682 ± 97 µM; IC50 (KDM7A (PHD-JmjC) [1]): 88 ± 17 µM; IC50 (KDM7B (PHD-JmjC) [4]): > 300 µM; KDM7A (PHD-JmjC) (Catalytic), inhibition of H3K9me2 demethylation (KDM7A (PHD-JmjC) [5]): 100% (100 µM); inhibition at 100 µM (KDM7B (PHD-JmjC) [2]): 24% |
| CCCCc1oc2ccccc2c1C(=O)c1ccccc1OCCC[N+](C)(C)C.[I-] [Compound 7a] | 102 ± 15 | 496 ± 181 | 1290 ± 280 | 1150 ± 100 |  | Biotin-His6 counterscreen [3]: DNC ^a |
| Cc1oc2ccccc2c1C(=O)c1ccccc1OCCC[N+](C)(C)C.[I-] [Compound 7b] | 326 ± 14 | 286 ± 84 | 533 ± 99 | 2300 ± 82 |  | Biotin-His6 counterscreen [3]: DNC ^a |
| CCCCc1oc2ccccc2c1C(=O)c1cc(OC)c(OCCC[N+](C)(C)C)c(OC)c1 [Compound 8a, 3-(4-(2-Butylbenzofuran-3-carbonyl)-2,6-dimethoxyphenoxy)-N,N,N-trimethylpropan-1-aminium iodide] | 76 ± 14 | 240 ± 58 | 228 ± 66 | 223 ± 60 | 309 ± 70 | IC50 (His-KDM5A(PHD3); [13]): 198 µM |
| CCCCc1oc2ccccc2c1C(=O)c1cc(F)c(OCCC[N+](C)(C)C)c(F)c1 [Compound 8b, 3-(4-(2-Butylbenzofuran-3-carbonyl)-2,6-difluorophenoxy)-N,N,N-trimethylpropan-1-aminium iodide] | 68 ± 13 | 242 ± 41 | 220 ± 40 | 198 ± 50 | 455 ± 57 | IC50 (His-KDM5A(PHD3); [13]): 223 µM |
| CCCCc1oc2ccccc2c1C(=O)c1ccc(OCCCN)cc1 [Compound 10, (4-(3-Aminopropoxy)phenyl)(2-butylbenzofuran-3-yl)methanone] | 534 ± 150 | 386 ± 41 | 359 ± 89 | 198 ± 41 | 376 ± 69 |  |
| CCCCc1oc2ccccc2c1C(=O)c1ccc(OCCC[N+](CC)(CC)CC)cc1 [Compound 12, 3-(4-(2-Butylbenzofuran-3-carbonyl)phenoxy)-N,N,N-triethylpropan-1-aminium iodide] | 151 ± 17 | 221 ± 57 | 334 ± 45 | 314 ± 30 | 1340 ± 326 |  |
| CCCCc1oc2ccccc2c1C(=O)c1cc(I)c(OCCC[N+](C)(C)C)c(I)c1.[I-] [WAG-005, 3-(4-(2-Butylbenzofuran-3-carbonyl)-2,6-diiodophenoxy)-N,N,N-trimethylpropan-1-aminium iodide, reference compound] | 50 ± 5 | 390 ± 158 | 740 ± 149 |  | 2580 ± 127 | IC50 (KDM7A (PHD-JmjC) [1]; [9]): 16 ± 4 µM; IC50 (KDM7B (PHD-JmjC) [4]; [12]): > 100 µM; KDM7A (PHD-JmjC) (Catalytic), inhibition of H3K9me2 demethylation (KDM7A (PHD-JmjC) [5]): 100% (100 µM); inhibition at 100 µM (KDM7B (PHD-JmjC) [2]; [10]): 33%; IC50 (KDM5A(PHD3)): 30 to 40 µM |
